Consider 19 compounds from US4374841A, “Pyridoxine derivatives, and use in therapeutics” (S. A. Labaz N.V., priority 1980, dated 1983).

Structures can show the parent of a compound that is named as a salt. Where two headings read alike, the source gives them in different places.

The test system of one assay is α-receptors. The experiment in a line: Antiadrenergic properties: anti-α effect (reduction of epinephrine-increased blood-pressure). The format is in vivo, dog. As to conditions: intravenous; for Anti-α effect: anaesthetized atropinized dog, epinephrine. On the procedure:
(§1) The purpose of this test was to determine the capacity of the compounds under study to reduce epinephrine-increased blood-pressure (anti-α effect) and epinephrine-accelerated heart-rate (anti-β effect) in the dog previously anaesthetized with pentobarbital (30 mg/kg) and atropinized (1 mg/kg).
After that, the dose of epinephrine so determined was administered followed by a dose, by intravenous route, of the compound to be studied. The percentage of reduction of hypertension produced by the compound under study in comparison with the hypertension previously obtained (about 100 mm.Hg) was then registered.
(§2) In both cases, the results were expressed as follows: […]
(§3) + for a <50%-reduction of the increase in pressure or cardiac frequency
(§4) ++ for a ≥50-reduction of the increase in pressure or cardiac frequency
(§5) +++ for the almost complete supression of the increase in pressure or cardiac frequency.

The test system of the next assay is β-receptors. As to the kind of experiment: Antiadrenergic properties: anti-β effect (reduction of epinephrine-accelerated heart-rate). The format is in vivo. As to conditions: intravenous, anaesthetized atropinized dog. As to the method:
as §1
The percentage of reduction of the epinephrine-induced acceleration of heart-rate obtained by means of the compounds under study in comparison with the tachycardia previously measured (about 70 beats) was then registered.
as §2, §3, §4, §5

A further assay has as its system mice. The experiment in a line: Central depressant properties (passage of mice through a light ray). The format is in vivo. The following applies: intragastric, 30 minutes after administration, recorded over 15 minutes, dose with depressant action in 50% of the animals; for ED50: Mus musculus, po, 0.5 h, read-out: AD50 (the source's name). As to the method:
D. Central depressant properties
Thirty minutes after the intragastric administration of a dose of the compound to be studied, batches of mice were placed in a container through which a ray of light was projected. By means of a photoelectric cell, a record was made of the number of animals passing through the light ray over a period of 15 minutes. The same test was performed with control animals.
The AD50 was then calculated i.e. the dose of the compound under study which provoked a depressant action in 50% of the animals.

Assay [1] relates to anaesthetized dog. As to the kind of experiment: Hypotension in the anaesthetized dog. The format is in vivo. The following applies: intravenous. As to the method:
(a) Hypotension in the anaesthetized dog
The hypotensive effect was determined for at least one hour after the intravenous injection of a dose of the compound under study in the dog previously anaesthetized with pentobarbital (30 mg/kg) and atropinized (1 mg/kg).
Arterial pression was registered on a femoral artery.
The results were expressed as follows: […]
++ for a lasting reduction of about 30% in arterial pressure
+ for a short-lived reduction of about 20% in arterial pressure.

The test system of assay [2] is anaesthetized dog. The experiment in a line: Reserpine-like properties (cardiac frequency and contractility of the myocardium). The following applies: Canis lupus familiaris, 1 mg/kg, intravenous, anaesthetized dog. The format is in vivo. The source says: C. Reserpine-like properties
the increase in cardiac frequency
the increase of (dP/dt) at its maximum, i.e. the increase of the maximum of the derivative of the left ventricular pressure in relation to time.
This derivative thus represented an index of contractility.

The mark [3] stands for this setting: (dP/dt) maximum, read-out: increase in the contractility of the myocardium.
The mark [4] stands for this setting: read-out: increase in cardiac frequency.

For “4,5-Dihydroxymethyl-3-(2-hydroxy-3-phenoxyethylamino-propoxy)-2-methyl-pyridine [C]”, the Anti-α effect entry in the assay on α-receptors (10 mg/kg) is reported as “+++”. In addition, the Anti-β effect result in the assay on β-receptors (10 mg/kg) was “+ (for a <50%-reduction of the increase in pressure or cardiac frequency)”.
On to “4,5-Dihydroxymethyl-3-[2-hydroxy-3-(2-methoxy-phenoxyethylamino)-propoxy]-2-methyl-pyridine”, for which the Anti-α effect entry in the assay on α-receptors (10 mg/kg) is “++ (for a ≥50-reduction of the increase in pressure or cardiac frequency)”. Also, in the assay with β-receptors (10 mg/kg), the Anti-β effect entry was “+ (for a <50%-reduction of the increase in pressure or cardiac frequency)”. Moreover, the AD50 in the assay on mice is listed as 33 mg/kg.
Consider “4,5-Dihydroxymethyl-3-[2-hydroxy-3-(2-phenoxy-2-methyl-ethylamino)-propoxy]-2-methyl-pyridine [J]”, for which the Anti-α effect result in the assay with α-receptors (10 mg/kg) is reported as “+++”. In the assay on mice, this compound had an AD50 of 47 mg/kg.
Consider “4,5-Dihydroxymethyl-3-[2-hydroxy-3-(2-phenyl-1-methyl-ethylamino)-propoxy]- 2-methyl-pyridine [B]”, for which the Anti-α effect entry in the assay on α-receptors (3.5 mg/kg) was “+++”. In addition, in the assay with β-receptors (3.5 mg/kg), the Anti-β effect entry is “+++”. The “Decrease in arterial pressure” value with anaesthetized dog [1] (3.5 mg/kg) is “+ (for a short-lived reduction of about 20% in arterial pressure)”.
On to “4,5-Dihydroxymethyl-3-[2-hydroxy-3-(3,5-dimethyl-phenoxyethylamino)-propoxy]-2-methyl-pyridine”, for which, in the assay with α-receptors (10 mg/kg), the Anti-α effect result is listed as “++ (for a ≥50-reduction of the increase in pressure or cardiac frequency)”. In the assay on β-receptors (10 mg/kg), the Anti-β effect result was “++ (for a ≥50-reduction of the increase in pressure or cardiac frequency)”.
Turning to “4,5-Dihydroxymethyl-3-[2-hydroxy-3-(3-methyl-phenoxyethylamino)-propoxy]-2- methyl-pyridine”, the Anti-α effect entry with α-receptors (7.5 mg/kg) was “+++”. Further, the Anti-β effect result with β-receptors (7.5 mg/kg) is on record as “+ (for a <50%-reduction of the increase in pressure or cardiac frequency)”. In addition, in the assay with anaesthetized dog [1] (10 mg/kg), the “Decrease in arterial pressure” value is on record as “+ (for a short-lived reduction of about 20% in arterial pressure)”.
As to “4,5-Dihydroxymethyl-3-{2-hydroxy-3-[(3-phenyl-1-methyl-1-propyl)-amino]-propoxy}-2-methyl-pyridine”, the Anti-α effect result with α-receptors (10 mg/kg) was “+++”. The Anti-β effect entry in the assay on β-receptors (10 mg/kg) is “++ (for a ≥50-reduction of the increase in pressure or cardiac frequency)”.
For `Cc1ccc(OCCNCC(O)COc2c(C)ncc(CO)c2CO)cc1` (stereo not drawn) [Compound M, 4,5-Dihydroxymethyl-3-[2-hydroxy-3-(4-methyl-phenoxyethylamino)-propoxy]-2-methyl-pyridine], the Anti-α effect result in the assay with α-receptors (10 mg/kg) is “++ (for a ≥50-reduction of the increase in pressure or cardiac frequency)”. Besides, the Anti-β effect with β-receptors (10 mg/kg) is listed as 0. For the same compound, the change in vivo at 1 mg/kg in the assay with anaesthetized dog [2] (setting [3]) and with anaesthetized dog [2] (setting [4]) was 10 to 30% throughout.
Regarding `COc1ccccc1OCCNCC(O)COc1c(C)ncc(CO)c1CO` (stereo not drawn) [Compound U, 4,5-dihydroxymethyl-3-[2-hydroxy-3-(2-methoxy-phenoxyethylamino)-propoxy]-2-methyl-pyridine], in the assay on α-receptors (10 mg/kg), the Anti-α effect entry is “+++”. For the same compound, in the assay with α-receptors (lowest active dose, dog, dihydrochloride), the “prolonged α-antiadrenergic activity at a dose as low as” value came out at 0.5 mg/kg. In the assay on β-receptors (10 mg/kg), the Anti-β effect entry is given as “++ (for a ≥50-reduction of the increase in pressure or cardiac frequency)”.
In the case of `Cc1ccc(C(C)C)c(OCCNCC(O)COc2c(C)ncc(CO)c2CO)c1` (stereo not drawn) [L, 4,5-Dihydroxymethyl-3-[2-hydroxy-3-(2-isopropyl-5-methyl-phenoxyethylamino)-propoxy]-2-methyl-pyridine], the Anti-α effect result in the assay with α-receptors (10 mg/kg) is “+++”. The Anti-β effect entry in the assay on β-receptors (10 mg/kg) is reported as “++ (for a ≥50-reduction of the increase in pressure or cardiac frequency)”. The change in vivo at 1 mg/kg in the assay with anaesthetized dog [2] (setting [3]) and with anaesthetized dog [2] (setting [4]) was 10 to 30% throughout. In the assay on mice, the ED50 stood at 40 mg/kg.
As for `CCCc1ccccc1OCCNCC(O)COc1c(C)ncc(CO)c1CO` (stereo not drawn) [N, 4,5-Dihydroxymethyl-3-[2-hydroxy-3-(2-n-propyl-phenoxyethylamino)-propoxy]-2-methyl-pyridine], the Anti-α effect result with α-receptors (7 mg/kg) is “+++”. Moreover, the Anti-β effect entry with β-receptors (7 mg/kg) is “++ (for a ≥50-reduction of the increase in pressure or cardiac frequency)”. In the assay with mice, the ED50 was found to be 42 mg/kg.
Take `Cc1ncc(CO)c(CO)c1OCC(O)CNCCOc1ccccc1C(C)C` (stereo not drawn) [P, 4,5-Dihydroxymethyl-3-[2-hydroxy-3-(2-isopropyl-phenoxyethylamino)-propoxy]-2-methyl-pyridine]: in the assay on α-receptors (2 mg/kg), the Anti-α effect result is “+++”. Further, the Anti-β effect entry in the assay on β-receptors (2 mg/kg) was “++ (for a ≥50-reduction of the increase in pressure or cardiac frequency)”. Moreover, the change in vivo at 1 mg/kg with anaesthetized dog [2] (setting [3]) and in the assay on anaesthetized dog [2] (setting [4]) was 10 to 30% in each case. Moreover, the ED50 in the assay with mice is 42 mg/kg.
`CNC(=O)OCc1cnc(C)c(OCC(O)CNCCOc2ccccc2C)c1COC(=O)NC` (stereo not drawn) [Q, 4,5-Di-(N-methylcarbamoyloxymethyl)-3-[2-hydroxy-3-(2-methyl-phenoxyethylamino)-propoxy]-2-methyl-pyridine]: in the assay with α-receptors (10 mg/kg), the Anti-α effect entry is “+++”. This compound also displayed an Anti-β effect in the assay on β-receptors (10 mg/kg) of 0.
Taken in the same sequence, the figures for `CNC(=O)OCc1cnc(C)c(OCC(O)CNCCOc2ccccc2)c1COC(=O)NC` (stereo not drawn) [R, 4,5-Di-(N-methylcarbamoyloxymethyl)-3-(2-hydroxy-3-phenoxyethylamino-propoxy)-2-methyl-pyridine] were “++ (for a ≥50-reduction of the increase in pressure or cardiac frequency)” and 0.
As to `Cc1ncc(CO)c(CO)c1OCC(O)CNCCOc1ccccc1C(C)C` (stereo not drawn) [S, 4,5-Dihydroxymethyl-3-[2-hydroxy-3-(2-isopropyl-phenoxyethylamino)-propoxy]-2-methyl-pyridine], in the assay on α-receptors (10 mg/kg), the Anti-α effect result was “+++”. For the same compound, the Anti-β effect entry in the assay with β-receptors (10 mg/kg) is reported as “++ (for a ≥50-reduction of the increase in pressure or cardiac frequency)”.
For `Cc1ccc(OCCCNCC(O)COc2c(C)ncc(CO)c2CO)cc1C` (stereo not drawn) [T, 4,5-Dihydroxymethyl-3-[2-hydroxy-3-(3,4-dimethyl-phenoxypropylamino)-propoxy]-2-methyl-pyridine], the Anti-α effect entry in the assay with α-receptors (10 mg/kg) was “++ (for a ≥50-reduction of the increase in pressure or cardiac frequency)”. In addition, the Anti-β effect entry with β-receptors (10 mg/kg) is “++ (for a ≥50-reduction of the increase in pressure or cardiac frequency)”.
On to `Cc1ncc(CO)c(CO)c1OCC(O)CNCCOc1ccc(Cl)cc1` (stereo not drawn) [W, 4,5-Dihydroxymethyl-3-[2-hydroxy-3-(4-chloro-phenoxyethylamino)-propoxy]-2-methyl-pyridine], for which, in the assay on α-receptors (10 mg/kg), the Anti-α effect entry was “++ (for a ≥50-reduction of the increase in pressure or cardiac frequency)”. The Anti-β effect entry in the assay on β-receptors (10 mg/kg) was “+ (for a <50%-reduction of the increase in pressure or cardiac frequency)”.
For `COc1ccc(CCNCC(O)COc2c(C)ncc(CO)c2CO)cc1OC.O=C(O)C(=O)O.O=C(O)C(=O)O` (stereo not drawn) [X, 4,5-Dihydroxymethyl-3-[3-(3,4-dimethoxy-phenethylamino)-2-hydroxy-propoxy]-2-methyl-pyridine dioxalate], the “Decrease in arterial pressure” value with anaesthetized dog [1] (10 mg/kg) is on record as “+ (for a short-lived reduction of about 20% in arterial pressure)”.
As for `Cc1ncc(CO)c(CO)c1OCC(O)CNCCc1ccccc1` (stereo not drawn) [Z, 4,5-Dihydroxymethyl-3-(2-hydroxy-3-phenylethyl-amino-propoxy)-2-methyl-pyridine oxalate], the change in vivo at 1 mg/kg with anaesthetized dog [2] (setting [3]) and in the assay with anaesthetized dog [2] (setting [4]) was 10 to 30% in each case. In the assay on mice, the ED50 is 33 mg/kg.
